System: NCAPG2 pT1010
Test: NCAPG2 pT1010-specific antibody reactivity after phosphorylase inhibitor treatment of nocodazole-treated breast cancer cells
Assay type: cell-based, human
Conditions: MBAMB 231 treated with nocodazole, then inhibitor for 2 hours; FIG. 1B, 1C
Method: In addition, to confirm a phosphorylase inducing phosphorylation, after treating a breast cancer cell line MBAMB 231 with nocodazole, which is a mitosis-inducing reagent, and then with inhibitors of phosphorylases regulating mitosis for 2 hours, the reactivity of the NCAPG2 pT1010-specific antibody was confirmed.

Row | SMILES | NCAPG2 pT1010 phosphospecific bands after kinase inhibition
1 | O=C1NC(=NCc2cccs2)S/C1=C\c1ccc2ncccc2c1 [RO3306] | phosphospecific bands disappear
2 | c1nc2nc(Nc3ccc(N4CCOCC4)cc3)nc(NC3CCCCC3)c2[nH]1 [reversine] | phosphospecific bands disappear
